Results published in US9315522B2, “Antibacterial compounds” (JANSSEN SCIENCES IRELAND UC, priority 2012, dated 2016).
Values after ≈ are worked out from the molar mass of the structure shown. Values joined by “and” are separate entries in the source; they are usually repeats but may differ in a detail not shown here. Identical values can stand only once.

Experiments:
[1] = tested on: Staphylococcus aureus ATCC 29213; assay: Antibacterial susceptibility testing, IC90 determination (STA); assay type: cell-based; conditions: Staphylococcus aureus, ATCC29213, Staphylococcus aureus ATCC 29213, broth microdilution, resazurin; read-out: STA (361.159) IC90
Experimental: (§1) The following bacteria were used: Staphylococcus aureus ATCC 29213, methicillin-resistant Staphylococcus aureus (MRSA) ATCC 700788 and Escherichia coli ATCC 35218. The bacteria used in this study were grown overnight in flasks containing 100 ml Mueller-Hinton broth (Difco cat. nr. 0757-17) in sterile de-ionized water, with shaking, at 37° C. Stocks were store at −70° C. until use.
(§2) Bacteria were incubated on a tryptic soy agar plate containing 5% sheep blood (Becton Dickinson cat. nr. 254053) for 18-24 hours at 35° C. in aerobic conditions (first passage). For the second passage, fresh Mueller-Hinton broth is inoculated with 5-10 colonies and grown overnight at 35° C. until turbidity (reaching log-phase) in aerobic conditions is reached. The bacterial suspension is then adjusted to 0.5 McFarland density and further diluted 1:100 in Mueller Hinton broth medium. This is used as inoculum.
The result(s) are depicted the table below (for STA ATCC 29213).
(§3) MIC assays were performed by the broth microdilution method in a 96-well format (flat-bottom microtitre plates) with a final volume of 0.1 ml Mueller Hinton broth containing two-fold serial dilutions of compounds and inoculated with 5×10^5 CFU/ml of bacteria (standard inoculum size according to CLSI guidelines). Inhibitors are typically varied over the range of 63 to 0.49 μM. The final DMSO concentration in the assay was 1.25% (maximum tolerable DMSO concentration=6%). In the assays where the effect of human serum on the activity of the compounds against S. aureus was tested, human serum was added at a final concentration of 10%. The plates were incubated at 35° C. for 16-20 hours. At the end of incubation the bacterial growth was quantified fluorometrically. For this, resazurin was added to all wells and the plates were re-incubated. The incubation time is dependent on the type of bacteria. A change in color from blue to pink indicated the growth of bacteria. The fluorescence was read in computer-controlled fluorometer (Fluoroskan Ascent FL, Labsystems) at an excitation wavelength 540 nm and an emission wavelength of 590 nm. The % growth inhibition achieved by the compounds was calculated according to standard methods. The IC90 (expressed in μg/ml) was defined as the 90% inhibitory concentration for bacterial growth. A panel of reference compounds were simultaneously tested for QC approval.

[2] = Cytotoxicity MTT assay (HELAM); assay type: cell-based, Human; conditions: human, HelaM cells, read-out: HELAM (222.125) CC50
Experimental: Cytotoxicity of the compounds was evaluated using the MTT assay. Human HelaM cells grown in 96-well plates were exposed to serial dilutions of the tested compounds (final volume of 0.2 ml) and incubated for 72 hours at 37° C. and 5% CO2. Inhibitors are typically varied over the range of 25 to 0.8 μM. The final DMSO concentration in the assay is 0.5%. MTT (3-(4,5-Dimethylthiazol-2-yl)-2,5-diphenyltetrazolium bromide, a tetrazole) was added and reduced to purple formazan only in living cells. Solubilization of the formazan crystals was achieved by adding 100 μl 2-propanol. Cell viability was determined by measuring the absorbance of the reduced formazan, giving a purple color, at 540 nm and 690 nm. The absorbance measured at 690 nm was automatically subtracted from the absorbance at 540 nm, to eliminate the effects of non-specific absorption. The percent cytotoxicity achieved by the compounds was calculated according to standard methods. Cytotoxicity is reported as CC50, the concentration that causes a 50% reduction in cell viability.
The results are depicted in the table(s) below (HELAM).

[3] = biological target: T1, S. aureus ATCC 29213 FabI (Staphylococcus aureus, UniProt Q6GI75); assay: Staphylococcus aureus FabI enzyme inhibition assay; assay type: biochemical; conditions: read-out: FabI (300.235) IC50 (converted)
T1 sequence (Q6GI75 1-256): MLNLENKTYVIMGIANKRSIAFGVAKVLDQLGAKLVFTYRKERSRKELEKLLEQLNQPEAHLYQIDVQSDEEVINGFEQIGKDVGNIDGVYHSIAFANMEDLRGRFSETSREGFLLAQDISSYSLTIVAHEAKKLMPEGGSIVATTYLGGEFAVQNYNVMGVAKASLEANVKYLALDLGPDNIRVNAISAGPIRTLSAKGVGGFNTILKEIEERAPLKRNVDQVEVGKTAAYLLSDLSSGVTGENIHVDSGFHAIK
Experimental: Y.1 FabI Enzyme Inhibition: Staphylococcus aureus FabI Enzyme Inhibition Assay
FabI enzyme inhibition assays were carried out in half-area, 384-well microtitre plates. Compounds were evaluated in 40-μl assay mixtures containing 100 mM NaADA, pH 6.5 (ADA=N-[2-acetamido]-2iminodiacetic acid), 250 μM crotonoyl-CoA, 625 μM NADH and 50 μg/ml S. aureus ATCC 29213 FabI. Inhibitors were typically varied over the range of 50 to 0.39 μM. The reaction mixtures were incubated for 30 minutes at room temperature and the reaction was stopped by adding 200 mM Tris buffer (pH 9.0) to create a pH-shift. The consumption of NADH was monitored by measuring the change in absorbance at […]. By comparing sample readings to those of negative (absence of compound) and positive (absence of enzyme) controls, the percent inhibition of enzymatic activity of the compounds was determined A best-fit curve is fitted by a minimum of squares method. From this an IC50-value (expressed in μg/ml), resulting in 50% inhibition of enzymatic activity, was obtained.

S. aureus = assay: Antibacterial susceptibility testing, IC90 determination with 10% human serum (STA + 10% HS); assay type: cell-based, Staphylococcus aureus; conditions: Staphylococcus aureus, human serum at final concentration of 10%, read-out: STA + 10% HS (361.169) IC90
Experimental: as §1, §2, §3
The results are depicted in the table(s) below (STA+10% HS).

Compound	IC90 [1]	CC50 at 72 h [2]	melting point	IC50 [3]	IC90 (S. aureus)
COc1cncc(C(=O)Nc2ccc(/C=C/C(=O)N3CC4C=C(c5ccnn5C)CC4C3)cn2)c1 (stereo not shown) [compound 31]	0.72 µg/mL (≈ 1.53 µM)	> 11.8 µg/mL	89.36 °C	659 nM	0.86 µg/mL
COc1cncc(C(=O)Nc2ccc(/C=C/C(=O)N3CC4C=C(c5nccs5)CC4C3)cn2)c1 (stereo not shown) [compound 32]	< 0.23 µg/mL	> 11.9 µg/mL	207 °C	718 nM	< 0.23 µg/mL
COc1cncc(C(=O)Nc2ccc(/C=C/C(=O)N3CC4C=C(c5ccsc5)CC4C3)cn2)c1 (stereo not shown) [compound 33]	< 0.23 µg/mL	> 11.9 µg/mL	205 °C	1290 nM	< 0.23 µg/mL
O=C1Nc2ncc(/C=C/C(=O)N3CC4C=C(c5ccsc5)CC4C3)cc2CO1 (stereo not shown) [compound 35]	0.16 µg/mL (≈ 0.407 µM)	> 3.93 µg/mL	> 250 °C	839 nM	0.37 µg/mL
O=C1COc2cc(/C=C/C(=O)N3CC4C=C(c5ccncc5)CC4C3)cnc2N1 (stereo not shown) [compound 36]	0.16 µg/mL (≈ 0.412 µM)	> 3.88 µg/mL	> 260 °C	1130 nM	< 0.08 µg/mL
O=C1COCc2cc(/C=C/C(=O)N3CC4C=C(c5ccccc5)CC4C3)cnc2N1 (stereo not shown) [compound 39]	< 0.19 µg/mL	> 10.1 µg/mL	266.57 °C and 266.6 °C	~1620 nM	0.35 µg/mL
O=C1COCc2cc(/C=C/C(=O)N3CC4C=C(c5ccsc5)CC4C3)cnc2N1 (stereo not shown) [compound 41]	< 0.2 µg/mL	> 10.2 µg/mL	152 °C	1030 nM	0.23 µg/mL
O=C1COCc2cc(/C=C/C(=O)N3CC4C=C(c5nccs5)CC4C3)cnc2N1 (stereo not shown) [compound 49]	0.25 µg/mL (≈ 0.612 µM)	> 10.3 µg/mL	260.34 °C	~930 nM	0.24 µg/mL
CN1CC(=O)Nc2ncc(/C=C/C(=O)N3CC4C=C(c5ccccc5)CC4C3)cc2C1 (stereo not shown) [compound 50]	0.35 µg/mL (≈ 0.844 µM)	> 20.8 µg/mL	202 °C	965 nM	0.4 µg/mL
O=C1Nc2ncc(/C=C/C(=O)N3CC4C=C(c5ccccc5)CC4C3)cc2CO1 (stereo not shown) [compound 51]	0.35 µg/mL (≈ 0.903 µM)	> 9.73 µg/mL	> 250 °C	903 nM	0.71 µg/mL
O=C1CNCc2cc(/C=C/C(=O)N3CC4C=C(c5ccncc5)CC4C3)cnc2N1 (stereo not shown) [compound 52]	0.37 µg/mL (≈ 0.922 µM)	> 10.1 µg/mL	> 260 °C	971 nM	0.35 µg/mL
O=C1COCc2cc(/C=C/C(=O)N3CC4C=C(c5ccncc5)CC4C3)cnc2N1 (stereo not shown) [compound 54]	0.38 µg/mL (≈ 0.944 µM)	> 10.1 µg/mL	154 °C	1020 nM	0.35 µg/mL
O=C1Nc2ncc(/C=C/C(=O)N3CC4C=C(c5ccncc5)CC4C3)cc2CO1 (stereo not shown) [compound 55]	0.76 µg/mL (≈ 1.96 µM)	> 9.76 µg/mL	156 °C	927 nM	0.71 µg/mL
Cn1nccc1C1=CC2CN(C(=O)/C=C/c3cnc4c(c3)COCC(=O)N4)CC2C1 (stereo not shown) [compound 56]	1.51 µg/mL (≈ 3.72 µM)	> 10.2 µg/mL	149 °C	1180 nM	1.44 µg/mL
Cn1nccc1C1=CC2CN(C(=O)/C=C/c3cnc4c(c3)CNCC(=O)N4)CC2C1 (stereo not shown) [compound 57]	1.54 µg/mL (≈ 3.81 µM)	> 10.2 µg/mL	228 °C	939 nM	1.52 µg/mL
CN1CC(=O)Nc2ncc(/C=C/C(=O)N3C[C@@H]4CN(c5ccccc5)C[C@@H]4C3)cc2C1 [compound 58]	3.39 µg/mL (≈ 8.12 µM)	> 10.5 µg/mL	178.9 to 179.8 °C	1700 nM	3.13 µg/mL
COc1ccccc1N1C[C@H]2CN(C(=O)/C=C/c3cnc4c(c3)CN(C)CC(=O)N4)C[C@H]2C1 [compound 59]	3.39 µg/mL (≈ 7.57 µM)	> 11.2 µg/mL	114 °C	2230 nM	3.17 µg/mL
CC(C)C1Oc2cc(/C=C/C(=O)N3CC4C=C(c5ccccc5)CC4C3)cnc2NC1=O (stereo not shown) [compound 63]	< 0.21 µg/mL	> 10.8 µg/mL	224.9 °C	1420 nM	0.36 µg/mL
CC(C)C1Oc2cc(/C=C/C(=O)N3CC4C=C(c5nccs5)CC4C3)cnc2NC1=O (stereo not shown) [compound 64]	< 0.21 µg/mL	> 11 µg/mL	223.55 °C	825 nM	< 0.21 µg/mL
CC(C)C1Oc2cc(/C=C/C(=O)N3CC4C=C(c5ccncc5)CC4C3)cnc2NC1=O (stereo not shown) [compound 65]	< 0.21 µg/mL	> 10.8 µg/mL	113.11 °C	859 nM	< 0.21 µg/mL
